Experimental data published in ChEMBL document CHEMBL5528001, “Synthetic product-based approach toward potential antileishmanial drug development” (Eur J Med Chem, 2024).
Values after ≈ are worked out from the molar mass of the structure shown. Blank lines part the entries; values can stand above or below the compound they belong to.

Columns and labels:
[1] = system: Leishmania donovani; experiment: Antileishmanial activity against Leishmania donovani amastigotes; format: functional, organism-based
[2] = Cytotoxicity against HEK293 cells assessed as reduction in cell viability incubated for 6 days by CellTiter-Glo luminescent cell viability assay; format: toxicity, cell-based; conditions: human
[3] = system: Leishmania donovani; experiment: Antileishmanial activity against Leishmania donovani amastigotes assessed as parasite growth inhibition incubated for 72 hrs by MTS assay; format: functional, organism-based
[4] = system: Leishmania infantum; experiment: Antileishmanial activity against Leishmania infantum MON-1 promastigotes assessed as reduction in parasite viability measured after 48 hrs by MTT assay; format: functional, organism-based; conditions: MON-1, 48 h
[5] = Selectivity index, ratio of CC50 for human HepG2 cells to EC50 for GFP-expressing Leishmania infantum intracellular amastigotes infected in human THP-1 derived macrophage cells; format: toxicity, cell-based; conditions: read-out: Ratio CC50/EC50
[6] = system: Leishmania tropica; experiment: Antileishmanial activity against Leishmania tropica promastigotes incubated for 24 hrs measured by alamar blue staining based fluorescence analysis; format: functional, organism-based
[7] = system: Leishmania donovani; experiment: Antileishmanial activity against Leishmania donovani MHOM/SD/62/1S-CL2D promastigotes assessed as reduction in parasite growth incubated for 24 hrs by resazurin dye based analysis; format: functional, organism-based
[8] = system: Leishmania mexicana; experiment: Antileishmanial activity against Leishmania mexicana promastigotes; format: functional, organism-based
[9] = system: Leishmania donovani; experiment: Antileishmanial activity against Leishmania donovani promastigotes assessed as parasite growth inhibition incubated for 72 hrs by alamar blue staining based assay; format: functional, organism-based
[10] = system: Leishmania major; experiment: Antileishmanial activity against Leishmania major assessed as reduction in parasite growth; format: functional, organism-based
[11] = system: Leishmania amazonensis; experiment: Antileishmanial activity against Leishmania amazonensis IFLA/BR/1967/PH8 amastigotes infected in murine peritoneal macrophages incubated for 24 hrs by Giemsa staining based analysis; format: functional, organism-based; conditions: IFLA/BR/1967/PH8, 24 h
[12] = system: Leishmania donovani; experiment: Antileishmanial activity against Leishmania donovani amastigotes infected in human THP-1 cells assessed as inhibition of parasite infection incubated for 72 hrs by DAPI staining based assay; format: functional, organism-based; conditions: THP-1, 72 h
[13] = system: Leishmania donovani; experiment: Antileishmanial activity against Leishmania donovani amastigotes infected in J774.A1 macrophage assessed as inhibition of parasite growth by luciferase assay; format: functional, organism-based
[14] = system: Leishmania braziliensis; experiment: Antileishmanial activity against Leishmania braziliensis MHOM/BR/75/M2903 strain promastigotes assessed as reduction in cell viability incubated for 48 hrs by MTT assay; format: functional, organism-based; conditions: MHOM/BR/75/M2903, 48 h
[15] = system: Leishmania donovani; experiment: Antileishmanial activity against Leishmania donovani 9515 promastigotes assessed as inhibition of parasite growth incubated for 48 hrs by resazurin dye based assay; format: functional, organism-based; conditions: Leishmania donovani, 9515, 48 h
[16] = system: Leishmania major; experiment: Antileishmanial activity against Leishmania major IR-173 promastigotes assessed as inhibition of parasite growth incubated for 48 hrs by resazurin dye based assay; format: functional, organism-based; conditions: IR-173, 48 h
[17] = system: Leishmania donovani; experiment: Antileishmanial activity against Leishmania donovani MHOM/SD/62/1S assessed as inhibition of parasite growth by resazurin/alamar blue fluorometric assay; format: functional, organism-based
[18] = system: Leishmania aethiopica; experiment: Antileishmanial activity against Leishmania aethiopica amastigotes assessed as inhibition of parasite growth measured after 24 hrs by Alamar blue based analysis; format: functional, organism-based
[19] = system: Leishmania donovani; experiment: Antileishmanial activity against Leishmania donovani promastigotes assessed as inhibition of parasite growth; format: functional, organism-based
[20] = system: Leishmania amazonensis; experiment: Antileishmanial activity against Leishmania amazonensis MHOM/BR/75/Josefa promastigotes assessed as reduction in parasite viability after 72 hrs by Neubauer chamber counting method; format: functional, organism-based
[21] = system: Leishmania donovani; experiment: Antileishmanial activity against Leishmania donovani MHOM/IN/00/DEVI assessed as inhibition of parasite growth measured for 48 hrs by MTT assay; format: functional, organism-based
[22] = system: HepG2; experiment: Cytotoxicity against human HepG2 cells assessed as reduction in cell growth measured after 48 hrs by SRB assay; format: functional
[23] = Cytotoxicity against African green monkey Vero cells assessed as reduction in cell growth; format: toxicity, cell-based, Chlorocebus sabaeus
[24] = system: Leishmania braziliensis; experiment: Antileishmanial activity against Leishmania braziliensis promastigotes; format: functional, organism-based
[25] = system: Leishmania amazonensis; experiment: Antileishmanial activity against Leishmania amazonensis promastigotes assessed as inhibition of parasite growth; format: functional; set-up: scale not given: the % may be the effect or the level left
[26] = system: HepG2; experiment: Antiproliferative activity against human HepG2 cells assessed as reduction in cell viability incubated for 72 hrs by MTT assay; format: functional, cell-based; conditions: HepG2, 72 h
[27] = system: Leishmania major; experiment: Antileishmanial activity against Leishmania major amastigotes assessed as reduction in parasite growth incubated for 48 hrs by resazurin dye based analysis; format: functional, organism-based
[28] = system: Leishmania donovani; experiment: Antileishmanial activity against Leishmania donovani promastigotes assessed as parasitic proliferation inhibition incubated for 3 days by resazurin dye based assay; format: functional, organism-based; conditions: Leishmania donovani, 72 h; read-out: IC50

- IC50 [1]: 0.38 µM
SMILES: CCCCCCCn1cc(CN2C(=O)CN(/N=C/c3ccc([N+](=O)[O-])o3)C2=O)nn1
- IC50 at 6 days [2]: > 100 µM
- IC50 [3]: 0.18 µM

SMILES: CCOC(=O)c1cc2c([nH]c3ccccc32)c(-c2ccccn2)n1
- EC50 [4]: > 29.8 µM

SMILES: Nc1ccn(C(=O)C2CCC3(CC2)OOC2(O3)C3CC4CC(C3)CC2C4)n1 (stereo not drawn)
- selectivity ratio [5]: < 5
- IC50 [6]: 161 µM

SMILES: CCCCCCCCCCCCCCCC(=O)CC(=O)N1CCC[C@H]1COP(=O)([O-])OCC[N+](C)(C)C
- IC50 [7]: 52.6 µM

- IC50 [8]: 8.22 µM
SMILES: COc1cc(C(=O)/C=C/c2ccc([N+](=O)[O-])cc2)ccc1OCC=C(C)C

SMILES: CN(C)CCCNC(=O)c1ccc2cc(Cl)ccc2n1
- IC50 [9]: 5.85 µM

SMILES: CCCCCCCCCn1cc(CN2CCN(C(=O)c3c(C)nc4ccc(C)cn34)CC2)nn1
- IC50 [10]: 15.1 µM

- IC50 [11]: 5.67 µM
SMILES: O=C(CC[Se]c1ccnc2cc(Cl)ccc12)Nc1ccc([N+](=O)[O-])cc1

- IC50 [12]: 0.87 µM
SMILES: O=C(c1ccccc1)N1N=C(c2ccccc2)CC1c1cn(-c2ccc(Cl)cc2)nc1-c1ccccc1 (stereo not drawn)
- IC50 [13]: 0.08 µM

SMILES: COc1ccc(-n2cc(CCC(=O)OC3=C(C=C(C)C)C(=O)c4ccccc4C3=O)nn2)cc1
- IC50 [14]: 15.9 µM

SMILES: O=C(N/N=C/c1ccc([N+](=O)[O-])o1)c1ccc(OCc2ccccc2)cc1
- IC50 [15]: 4.48 µM
- IC50 [16]: 38.5 µM
- IC50 [17]: 4.53 µM

SMILES: Cc1ccc(-n2cc(C3N[C@H](C(N)=O)CS3)c(-c3ccccc3)n2)cc1 (stereo partly drawn)
- IC50 [18]: 1.02 µg/mL (≈ 2.8 µM)

SMILES: CCc1ccc(-n2cc(CN3CCN(C(=O)c4c(C)nc5ccc(Cl)cn45)CC3)nn2)cc1
- IC50 [10]: 15.1 µM

SMILES: Cc1ccc(-n2cc(C3=NCCS3)c(-c3ccccc3)n2)cc1
- IC50 [18]: 1.02 µg/mL (≈ 3.19 µM)

SMILES: COc1ccc(Cn2c(C)cc(O)c(C(=O)Nc3ccc(C)cc3)c2=O)cc1
- IC50 [19]: 55 µM

SMILES: CN(C)c1ccc(-c2nc(C(=O)NCCCl)cc3c2[nH]c2ccccc23)cc1
- IC50 [20]: 16.8 µM

- IC50 [8]: 8.04 µM
SMILES: COc1cc(/C=C/C(=O)c2ccccc2Cl)ccc1OCC=C(C)C

SMILES: CCCCCCCCCCCCCCCC(=O)CC(=O)N1CCC[C@@H]1COP(=O)([O-])OCC[N+](C)(C)C
- IC50 [7]: 28.3 µM

SMILES: O=C(N/N=C/c1ccc([N+](=O)[O-])o1)c1ccc(OCc2ccc(F)cc2)cc1
- IC50 [15]: 0.86 µM
- IC50 [16]: 0.28 µM
- IC50 [17]: 0.23 µM

SMILES: C(=N/CCCN(N1CCCCC1)N1CCCCC1)/c1cc(-c2ccccc2)c2ccc3c(-c4ccccc4)cc(/C=N/CCCN(N4CCCCC4)N4CCCCC4)nc3c2n1
- IC50 [21]: 2.52 µM
- CC50 [22]: 1.64 µM

- IC50 [24]: 0.1 µM
SMILES: Cc1cc(OCCCCNC(C)(C)C)cc2oc3cc(OCCCCNC(C)(C)C)cc(O)c3c(=O)c12
- IC50 [23]: 15.5 µM

SMILES: CC(C)=CC1=C(OC(=O)CCc2cn(-c3cccc(Cl)c3)nn2)C(=O)c2ccccc2C1=O
- IC50 [14]: 16.7 µM

SMILES: C/C=C1\NC(=S)NC1=O
- Activity [25]: 28%

- EC50 [26]: < 30 µM
SMILES: Cc1cc(C)cc(-n2cc(CNC(=O)c3c(C)nc4c5ccccc5c5ccccc5n34)nn2)c1

SMILES: CC(C)c1ccc(COc2ccc(C(=O)N/N=C\c3ccc([N+](=O)[O-])o3)cc2)cc1
- IC50 [27]: 0.62 µM

- IC50 [1]: 0.39 µM
SMILES: C#CCN1C(=O)CN(/N=C/c2ccc([N+](=O)[O-])o2)C1=O
- IC50 at 6 days [2]: 88.5 µM
- IC50 [3]: 3.03 µM

SMILES: CCOC(=O)C1=CNC(=O)NC1c1ccc(C)cc1 (stereo in doubt; 80)
- IC50 [28]: 29.3 µg/mL (≈ 113 µM)

- IC50 [8]: 4.57 µM
SMILES: COc1cc(C(=O)/C=C/c2cccc([N+](=O)[O-])c2)ccc1OCC=C(C)C

SMILES: Cc1cc(O)c(C(=O)Nc2ccc(Br)cc2)c(=O)n1C1CC1
- IC50 [19]: 55 µM

SMILES: C(=N/CCCN(c1cccnc1)c1cccnc1)/c1cc(-c2ccccc2)c2ccc3c(-c4ccccc4)cc(/C=N/CCCN(c4cccnc4)c4cccnc4)nc3c2n1
- IC50 [21]: 2.52 µM
- CC50 [22]: 1.64 µM
